The record followed here is the OligoGym collection.

Values joined by “and” are separate entries in the source; they are usually repeats but may differ in a detail not shown here. Equal entries are not always repeated. After the bases stand the sugars from the 5' end (letter, count) and the backbone: PS all phosphorothioate, else s phosphorothioate and o phosphodiester by linkage. Methylation of C is not given here. e = 2'-O-(2-methoxyethyl) (MOE); k = constrained ethyl (cEt); d = 2'-deoxy (DNA); m = 2'-O-methyl

In series [1] the target is IRF4. The following applies: ASO.
Series [2] addresses HSD17B13. The following applies: ASO, HepaRG.

Regarding TAATACCTACCTGCCC (sugars k3 d10 k3, PS), the target mRNA inhibition in series [1] (SK-MEL-28, 4 µM) was determined as 4%.
Same read-out and setting: the value for CAAACTCCTCAGGGAA (sugars k4 d8 k4, PS) was 17%; that for TATAATTGGCACGAGG (sugars k3 d10 k3, PS) was 41%.
Consider CGCTCAAAGACCAGCT (sugars k3 d10 k3, PS), for which, in series [1] (SK-MEL-28, 4 µM), the target mRNA inhibition came out at 56%.
In the case of TAGAGAACATTACGAG (sugars k3 d10 k3, PS), in series [1] (SK-MEL-28, 4 µM), the target mRNA inhibition was determined as 60%.
GGAGGATCATAAAGGA (sugars k3 d10 k3, PS): the target mRNA inhibition in series [1] (MM.1R, 1 µM) was 32%.
With CCCATCGAATCTGCCC (sugars k3 d10 k3, PS), in series [1] (MM.1R, 1 µM), the target mRNA inhibition was -24%.
Take CAGACCTTATGCTTGG (sugars k3 d10 k3, PS): the target mRNA inhibition in series [1] (SK-MEL-28, 4 µM) was determined as 10%.
In the case of AGGCGCGGACGCACGG (sugars k3 d10 k3, PS), the target mRNA inhibition in series [1] (SK-MEL-28, 4 µM) worked out at 31%.
GATGGGACCGCCCTGG (sugars k3 d10 k3, PS): the target mRNA inhibition in series [1] (MM.1R, 1 µM) was -13%.
In the case of AGGAATGGCGGATAGA (sugars k3 d10 k3, PS), in series [1] (SK-MEL-28, 4 µM), the target mRNA inhibition was 38%.
Still for that read-out and setting: next, CCCTAGGTCATACCCT (sugars k3 d10 k3, PS): 57%; ACAATACTGTAAGGGC (sugars k3 d10 k3, PS): 75% and 68%; GGACAGACCAGGATTC (sugars k3 d10 k3, PS): 25%.
As to CTACAAAATGCCTCCA (sugars k3 d10 k3, PS), the target mRNA inhibition in series [1] (SK-MEL-28, 4 µM) turned out to be 42%.
Take “GCAGTGATGTCAGGTT (sugars k3 d9 k3 e1, PS)”: the target mRNA inhibition in series [1] (MM.1R, 0.074 µM) amounted to 15%; in series [1] (MM.1R, 0.222 µM), 33%; in series [1] (MM.1R, 0.666 µM), 51%; in series [1] (MM.1R, 1 µM) it was 62%; in series [1] (MM.1R, 2 µM) it was 73%.
As to TCAGATACACACCCTC (sugars k3 d10 k3, PS), the target mRNA inhibition in series [1] (SK-MEL-28, 4 µM) is 37%.
For the sequence CTTGATAAAGGCTGAA (sugars k3 d10 k3, PS), the target mRNA inhibition in series [1] (SK-MEL-28, 4 µM) amounted to 60%.
For the sequence TATTTGTTTGCAAGCT (sugars k3 d10 k3, PS), the target mRNA inhibition in series [1] (MM.1R, 1 µM) worked out at 30%.
Consider TTTATGCGAAGAATTT (sugars k3 d10 k3, PS), for which, in series [1] (SK-MEL-28, 4 µM), the target mRNA inhibition came out at 33%.
Turning to CTTCATTTACTGTTAC (sugars k3 d10 k3, PS), the target mRNA inhibition in series [1] (SK-MEL-28, 4 µM) amounted to 31%.
With GGAGTACTTCACAATT (sugars k3 d10 k3, PS), the target mRNA inhibition was 20% in series [2] (0.02 µM); 25% in series [2] (0.078 µM); 42% in series [2] (0.313 µM); 79% in series [2] (1 µM); 75% in series [2] (1.25 µM); 87% in series [2] (5 µM).
As to AGACAGACCAAGTAGC (sugars k3 d10 k3, PS), the target mRNA inhibition in series [2] (1 µM) was determined as 21%.
As to GATTAATCTTGATGCT (sugars k3 d10 k3, PS), in series [2] (1 µM), the target mRNA inhibition came to 26%.
On to “CCGTUTTGGGCTAATG (sugars k3 d1 m1 d8 k3, PS)”, for which the target mRNA inhibition in series [2] (1 µM) was determined as 51%.
As to TAGTGTAAGCTGAGAG (sugars k3 d10 k3, PS), the target mRNA inhibition was found to be 0% in series [2] (0.02 µM); 0% in series [2] (0.078 µM); 2% in series [2] (0.313 µM); 75% in series [2] (1 µM); 48% in series [2] (1.25 µM); 83% in series [2] (5 µM).
For AAACTTCACCAACGAC (sugars k3 d10 k3, PS), the target mRNA inhibition in series [2] (1 µM) stood at 27%.
In the case of GAAATATAGAGGGTCC (sugars k3 d10 k3, PS), in series [2] (1 µM), the target mRNA inhibition came to 22%.
On the same count and under the same terms, the value for “TGCTACTTGAACAGTC (sugars k3 d1 m1 d8 k3, PS)” was 65%; that for CTAGATTCTACACTAA (sugars k3 d10 k3, PS) was 17%; that for ACATACCACTCTTCTC (sugars k3 d10 k3, PS) was 35%.
The same measure, in the same setting: next, “ACATUGCAGTTATTAG (sugars k3 d1 m1 d8 k3, PS)”: 26%; TATACTGAAGGCTGTG (sugars k3 d10 k3, PS): 44%.
Same read-out and setting: the value for “TTGGTAAGTATTCCAT (sugars k3 d9 k3 e1, PS)” was 28%; that for TACAGACTAAGGGACC (sugars k3 d10 k3, PS) was 68%; that for “ATGTAATAGCCAGTAC (sugars k3 d9 k3 e1, PS)” was 63%.
In the case of GGAGTCGGATTATTTT (sugars k3 d10 k3, PS), the target mRNA inhibition in series [2] (1 µM) was determined as 41%.
Consider “AGCAGAATTGTGAACG (sugars kkdddddddddkekek, PS)”, for which the target mRNA inhibition in series [2] (1 µM) amounted to 31%.
Consider CTCTAAGTTAGCCCCC (sugars k3 d10 k3, PS), for which the target mRNA inhibition in series [2] (1 µM) is 38%.
On the same count and under the same terms, next, CCTAAATTCAAAGACC (sugars k3 d10 k3, PS): 64%.
With GAGTGCATCTTAAGAT (sugars k3 d10 k3, PS), the target mRNA inhibition in series [2] (1 µM) came to 43%.
For AACAAGATTAGTCTTG (sugars k3 d10 k3, PS), the target mRNA inhibition in series [2] (1 µM) was 40%.
As for AAAGATGTACACTGAC (sugars k3 d10 k3, PS), the target mRNA inhibition in series [2] (1 µM) came to 57%.
On the same count and under the same terms, next, ATGTAATAGGCAGTAA (sugars k3 d10 k3, PS): 33%.
For the sequence “TGCAGCATTGATTCGA (sugars kkdddddddddkekek, PS)”, in series [2] (1 µM), the target mRNA inhibition is 42%.
As to CTCCAAATTCCCAACC (sugars k3 d10 k3, PS), the target mRNA inhibition in series [2] (1 µM) is 31%.
On to ACAAGTAAGGTAAAGT (sugars k3 d10 k3, PS), for which the target mRNA inhibition in series [2] (1 µM) came to 38%.
Still for that read-out and setting: the value for GAATCATTCAGTAGCT (sugars k3 d10 k3, PS) was 65%.
On to “TAAGAGGCATGAAAGG (sugars k3 d9 k3 e1, PS)”, for which the target mRNA inhibition in series [2] (1 µM) was 36%.
Same read-out and setting: the value for “ATAGCAAGCCAACAGA (sugars k3 d9 k3 e1, PS)” was 30%.
For “GGAATGCTACTTGAAC (sugars kkdddddddddkekek, PS)”, the target mRNA inhibition in series [2] (1 µM) stood at 49%.
Consider “AAAATAGAGTCGGTCA (sugars k3 d9 k3 e1, PS)”, for which, in series [2] (1 µM), the target mRNA inhibition was determined as 65%.
On to AATTGATACACCAATG (sugars k3 d10 k3, PS), for which the target mRNA inhibition in series [2] (1 µM) stood at 55%.
The same measure, in the same setting: next, “TTGATCTCTTAGCTGT (sugars kkdddddddddkekek, PS)”: 38%; TTATACTTTTCCGTCT (sugars k3 d10 k3, PS): 61%.
As to GAATTCACTATCTCCC (sugars k3 d10 k3, PS), the target mRNA inhibition in series [2] (1 µM) amounted to 38%.
Same read-out and setting: the value for CAGGAAGACAGGTAAT (sugars k3 d10 k3, PS) was 60%; that for ATATACGATGGAACAA (sugars k3 d10 k3, PS) was 0%.
Turning to CCAGAGCATTCATCAG (sugars k3 d10 k3, PS), the target mRNA inhibition in series [2] (0.02 µM) came to 0%; in series [2] (0.078 µM), 13%; in series [2] (0.313 µM), 41%; in series [2] (1 µM) it was 83%; in series [2] (1.25 µM) it was 71%; in series [2] (5 µM), 79%.
On to “ACTGCTGCTAGTGCCA (sugars k3 d1 m1 d8 k3, PS)”, for which the target mRNA inhibition in series [2] (1 µM) came to 64%.
In the case of “GTGTAAGCTGAGAGTT (sugars k3 d9 k3 e1, PS)”, in series [2] (1 µM), the target mRNA inhibition is 45%.
In the case of CTAGTGCCAAACCAAT (sugars k3 d10 k3, PS), in series [2] (1 µM), the target mRNA inhibition is 49%.
Turning to “TAGTGGACTTCATTAG (sugars k3 d9 k3 e1, PS)”, the target mRNA inhibition in series [2] (1 µM) was determined as 22%.
In the case of “TGATACACCAATGCAG (sugars k3 d1 m1 d8 k3, PS)”, in series [2] (1 µM), the target mRNA inhibition was 38%.
On to ATTGAATAGCCATGTA (sugars k3 d10 k3, PS), for which the target mRNA inhibition in series [2] (1 µM) was determined as 39%.
In the case of CAGAACCAATATGCTC (sugars k3 d10 k3, PS), the target mRNA inhibition in series [2] (1 µM) is 56%.
Still for that read-out and setting: the value for GAGGTAGCTTTTGTCC (sugars k3 d10 k3, PS) was 59%.
With “TCCTGTGTTAGCTTTA (sugars kkdddddddddkekek, PS)”, the target mRNA inhibition worked out at 18% in series [2] (0.02 µM); 29% in series [2] (0.078 µM); 54% in series [2] (0.313 µM); 79% in series [2] (1 µM); 71% in series [2] (1.25 µM); 86% in series [2] (5 µM).
For ACCGCGCTTATTAATA (sugars k3 d10 k3, PS), in series [2] (1 µM), the target mRNA inhibition stood at 4%.
The same measure, in the same setting: the value for “AGAAATTCACCTTGAC (sugars k3 d9 k3 e1, PS)” was 7%; that for GCAAGCCAACAGAGAG (sugars k3 d10 k3, PS) was 52%; that for “TGCTGCATTAATGCCA (sugars k3 d9 k3 e1, PS)” was 6%.
In the case of ATATAGAGGGTCCACT (sugars k3 d10 k3, PS), in series [2] (1 µM), the target mRNA inhibition is 18%.
Still for that read-out and setting: the value for “GCCTUGAATAGCAAGC (sugars k3 d1 m1 d8 k3, PS)” was 12%; that for GATTAAGGCAAAGATC (sugars k3 d10 k3, PS) was 25%.
Still for that read-out and setting: the value for GATTGCACAAACCACA (sugars k3 d10 k3, PS) was 73%.
Same read-out and setting: next, GCCTAGTTTTCGGCAC (sugars k3 d10 k3, PS): 12%.
Regarding “AGAAATTCACCTTGAC (sugars kkdddddddddkekek, PS)”, in series [2] (1 µM), the target mRNA inhibition came out at 33%.
In the case of ATGGTAAACTGTATGC (sugars k3 d10 k3, PS), the target mRNA inhibition in series [2] (0.02 µM) was found to be 19%; in series [2] (0.078 µM) it was 23%; in series [2] (0.313 µM), 53%; in series [2] (1 µM), 78%; in series [2] (1.25 µM) it was 75%; in series [2] (5 µM), 89%.
On to GACTACGGACTGGCAA (sugars k3 d10 k3, PS), for which, in series [2] (1 µM), the target mRNA inhibition stood at 60%.
With “AAACAAGAGGATAGTC (sugars k3 d1 m1 d8 k3, PS)”, the target mRNA inhibition in series [2] (1 µM) was found to be 53%.
Consider “TATAGACTGGGTAGGA (sugars kkdddddddddkekek, PS)”, for which the target mRNA inhibition in series [2] (1 µM) came to 38%.
